Measurements as given in patent publication US20140186260A1, “RADIOPHARMACEUTICAL AND PHARMACEUTICAL KIT” (NIHON MEDI-PHYSICS CO., LTD., priority 2012, published 2014).
Counter-ions that a name gives are not always drawn. Like-named read-outs stand apart in the source and are kept apart here. One block for each molecule: values may come before it.

Tests used:
[1] = ^64Cu complex exchange reaction between ^64Cu-ATSM and chelating agent in mouse plasma (TLC); details: 37° C., chelating agent 10 mg/mL, ^64Cu-ATSM 6 μCi/mL, 5, 30 or 60 minutes
Description: Blood collected from BALB/c nude mice (male, 6-week old, about 25 g in body weight, obtained from Japan SLC, Inc.) under diethyl ether anesthesia was centrifuged (high-speed cooling centrifuge Model MX-105, from Tomy Co., Ltd., 3,000 rpm, 10 minutes) to provide plasma. In the mouse plasma maintained at 37° C. was mixed each of D-penicillamine, dimercaprol, trientine hydrochloride, and deferoxamine mesylate to a final concentration of 10 mg/mL, to which ^64Cu-ATSM was then added to a final concentration of 6 μCi/mL. After maintaining each of the mixtures at 37° C. for 5 minutes, 30 minutes, or 60 minutes, methanol cooled at 4° C. in advance was added in an equal amount to the plasma thereto, which was thoroughly mixed and centrifuged (as above), followed by analyzing the supernatant by a TLC method.

HT29 tumor-bearing mice [2] = details: trientine hydrochloride 500 mg/kg oral 1 hour after ^64Cu-ATSM; vs saline
Description: Human large bowel cancer-derived HT29 cells were purchased from ATCC and proliferated for use. The HT29 tumor-bearing model was prepared by implanting 1×10^7 HT29 cells subcutaneously in the femoral region of BALB/c nude mice (male, 6-week old, about 25 g in body weight, obtained from Japan SLC, Inc.), and used for the experiment 3 weeks after implantation. The tumor-bearing mice were fasted from 16 hours or more before the start of the experiment. 185 kBq (5 μCi) of ^64Cu-ATSM was administered through the tail vein of the HT29 tumor-bearing mice, and D-penicillamine was orally administered to 500 mg/kg 10 minutes therebefore or 1 hour thereafter. Saline was administered to a control group in place of D-penicillamine. They were sacrificed by blood removal from the heart under diethyl ether anesthesia 1, 2, and 3 hours after the administration of ^64Cu-ATSM; each tissue was removed and weighed; and radioactivity was further measured using an automatic gamma counter (Model: 1480 Wizard 3, from PerkinElmer Co., Ltd.). The radioactivity distributed in each organ was expressed as radioactivity per g of organ (% ID (Injected Dose)/g tissue) when the amount administered is set to 100%. 185 kBq (5 μCi) of ^64Cu-ATSM was administered through the tail vein of the HT29 tumor-bearing mice prepared by the same method as Example 3, and D-penicillamine was orally administered to 100, 300, or 500 mg/kg 1 hour thereafter. Saline was administered to a control group in place of D-penicillamine. They were sacrificed by blood removal from the heart under diethyl ether anesthesia 2, 4, 6, 16, and 24 hours after the administration of ^64Cu-ATSM; each tissue was removed and weighed; and radioactivity was further measured. The excreted urine and feces were recovered, and radioactivity was similarly measured. The radioactivity distributed in each organ was expressed as ID/g tissue. The excretion of radioactivity into each of urine and feces was expressed as radioactivity (% ID) when the amount administered was set to 100%. 185 kBq (5 μCi) of ^64Cu-ATSM was administered through the tail vein of the tumor-bearing mice prepared by the same method as Example 3, and trientine hydrochloride was orally administered to 500 mg/kg 1 hour thereafter. Saline was administered to a control group in place of trientine hydrochloride. Thereafter, radioactivity in each organ, urine, and feces was measured as Example 4; the radioactivity distributed in each organ was expressed as % ID/g tissue, and the excretion of radioactivity into urine and feces was expressed as % ID.

HT29 tumor-bearing mice [3] = assay: Effect of D-penicillamine on in vivo pharmacokinetics and excretion of ^64Cu-ATSM in HT29 tumor-bearing mouse (2): dose dependence; details: D-penicillamine 100, 300 or 500 mg/kg oral 1 hour after ^64Cu-ATSM, vs saline
HT29 tumor-bearing mice [4] = assay: Effect of repeated D-penicillamine with or without glycerin enema on in vivo pharmacokinetics and excretion of ^64Cu-ATSM in HT29 tumor-bearing mouse (4); details: D-penicillamine 100 mg/kg oral at 1, 3 and 5 hours after ^64Cu-ATSM, vs saline
Text: FIGS. 12A, 12B and 12C were expressed in average and standard deviation for 4 mice.

HT29 tumor-bearing mice [5] = assay: Effect of D-penicillamine on in vivo pharmacokinetics of ^64Cu-ATSM in HT29 tumor-bearing mouse (1): before/after dosing; details: vs saline
HT29 tumor-bearing mice [6] = assay: Effect of D-penicillamine on PET imaging of ^64Cu-ATSM in HT29 tumor-bearing mouse; assay type: in vivo
Description: The distribution of radioactivity was imaged using a PET device specific for small animals (Inveon, from Siemens Medical Systems, Inc.) 30 minutes and 2, 3, 4, 5, 6, 7, 8, and 24 hours after the administration of ^64Cu-ATSM. Image acquisition was performed for 5 minutes from each time point, and the image was reconstructed by a 3-dimensional maximum a posteriori probability method (3D-MAP method) using Inveon Acquisition Workplace Software (from Siemens Medical Systems, Inc.). As a control, PET imaging was also similarly performed in mice receiving the administration of saline in place of D-penicillamine.

HT29 tumor-bearing mice [7] = assay: Effect of D-penicillamine on in vivo pharmacokinetics and excretion of ^64Cu-ATSM in HT29 tumor-bearing mouse (3): repeated administration; details: D-penicillamine 100 mg/kg oral 3 times at 1-hour or 2-hour intervals, vs saline
Description: 185 kBq (5 μCi) of ^64Cu-ATSM was administered through the tail vein of the tumor-bearing mice prepared by the same method as Example 3; D-penicillamine was orally administered to 100 mg/kg 1 hour thereafter; and D-penicillamine was then orally administered to 100 mg/kg 2 times at 1-hour or 2-hour intervals. Saline was administered to a control group in place of D-penicillamine. Thereafter, radioactivity in each organ, urine, and feces was measured as Example 4; the radioactivity distributed in each organ was expressed as % ID/g tissue, and the excretion of radioactivity into urine and feces was expressed as % ID.

tumor = details: Yoshii et al. 2011; cited from earlier work
CD133-positive cells = details: Yoshii et al. 2010; cited from earlier work
HT29 tumor-bearing mice [8] = assay: Effect of Ca-DTPA on in vivo pharmacokinetics of ^64Cu-ATSM in HT29 tumor-bearing mouse (Comparative Example 1); details: Ca-DTPA 150 mg/kg i.v. 10 minutes after ^64Cu-ATSM; 1 and 2 hours; vs saline
[9] = D-penicillamine 300 mg/kg oral 1 hour after 37 MBq ^64Cu-ATSM, vs saline

Structure (SMILES): CC(=O)N(O)CCCCCNC(=O)CCC(=O)N(O)CCCCCNC(=O)CCC(=O)N(O)CCCCCN [deferoxamine mesylate]
^64Cu complex exchange reaction from ^64Cu-ATSM to a highly polar complex [1]: No complex exchange reaction

excretion of radioactivity into feces (HT29 tumor-bearing mice [2]): less affected
excretion of radioactivity into urine (HT29 tumor-bearing mice [2]): statistically significantly promoted
uptake of radioactivity into the liver (HT29 tumor-bearing mice [2]): tended to be decreased
uptake of radioactivity into the tumor (HT29 tumor-bearing mice [2]): not statistically significantly affected
Structure (SMILES): NCCNCCNCCN [trientine hydrochloride]
^64Cu complex exchange reaction from ^64Cu-ATSM to a highly polar complex [1]: the effect thereof was relatively weak

uptake of radioactivity into the liver (HT29 tumor-bearing mice [3]; 2-24 hours): dose-dependently decreased
excretion of radioactivity into feces (HT29 tumor-bearing mice [3]): less affected
excretion of radioactivity into urine (HT29 tumor-bearing mice [3]): statistically significantly promoted
uptake of radioactivity into the tumor (HT29 tumor-bearing mice [3]): not statistically significantly affected
uptake of radioactivity into the liver (HT29 tumor-bearing mice [4]; 6, 16, 24 hours): decreased
excretion of radioactivity into urine (HT29 tumor-bearing mice [4]): statistically significantly promoted
uptake of radioactivity into the tumor (HT29 tumor-bearing mice [4]): not statistically significantly affected
uptake of ^64Cu-ATSM into the tumor (HT29 tumor-bearing mice [5]; D-penicillamine 500 mg/kg oral 1 hour after ^64Cu-ATSM): did not affect
uptake of radioactivity into the liver (HT29 tumor-bearing mice [5]; D-penicillamine 500 mg/kg oral, 10 minutes before or 1 hour after ^64Cu-ATSM i.v., 1, 2, 3 hours): markedly decreased
accumulation of radioactivity in the tumor (PET) (HT29 tumor-bearing mice [6]; [9]): not affected
uptake of radioactivity into the liver (HT29 tumor-bearing mice [7]; from 1 hour after ^64Cu-ATSM): decreased
excretion of radioactivity into feces (HT29 tumor-bearing mice [7]): less affected
excretion of radioactivity into urine (HT29 tumor-bearing mice [7]): statistically significantly promoted
uptake of radioactivity into the tumor (HT29 tumor-bearing mice [7]): not statistically significantly affected
Structure (SMILES): CC(C)(S)[C@@H](N)C(=O)O [D-penicillamine]
^64Cu complex exchange reaction from ^64Cu-ATSM to a highly polar complex [1]: Cu-ATSM and unidentified metabolites or degradation products rapidly disappeared, and the origin component increased
uptake of radioactivity into the tumor (HT29 tumor-bearing mice [5]; D-penicillamine 500 mg/kg oral 10 minutes before ^64Cu-ATSM): decreased the uptake of radioactivity into the tumor
accumulation of radioactivity in the bladder (PET) (HT29 tumor-bearing mice [6]; [9]): increase the accumulation of radioactivity in the bladder
accumulation of radioactivity in the liver (PET) (HT29 tumor-bearing mice [6]; [9]): decrease the accumulation of radioactivity in the liver

Structure (SMILES): OCC(S)CS (stereo not drawn) [dimercaprol]
^64Cu complex exchange reaction from ^64Cu-ATSM to a highly polar complex [1]: Cu-ATSM and unidentified metabolites or degradation products rapidly disappeared, and the origin component increased

Structure (SMILES): CN=C([S-])N/N=C(C)/C(C)=N/NC([S-])=NC.[64Cu+2] [^64Cu-ATSM, radioactive diacetyl-bis(N4-methylthiosemicarbazone) copper complex]
amount of CD133-positive cells in tumor (tumor): decreased the amount of CD133-positive cells in tumor
tumor size (tumor): shrink the tumor
accumulation in CD133-positive cells (CD133-positive cells): accumulates in CD133-positive cells
radioactivity accumulation in the liver after ^64Cu-ATSM (PET) (HT29 tumor-bearing mice [6]; 37 MBq ^64Cu-ATSM i.v., before chelating agent): radioactivity accumulation in the liver was once observed

uptake of radioactivity into each organ and tumor (HT29 tumor-bearing mice [8]): statistically little affected
Structure (SMILES): O=C([O-])CN(CCN(CC(=O)[O-])CC(=O)[O-])CCN(CC(=O)[O-])CC(=O)[O-].[Ca+2].[Na+].[Na+].[Na+] [Ca-DTPA]
